Data from patent publication US20230079819A1, “COMPOUNDS AND USES THEREOF” (Foghorn Therapeutics Inc., priority 2019, published 2023).
Where two headings read alike, the source gives them in different places.

What was measured:
BRM = target: T1, BRM (Homo sapiens, UniProt P51531); assay: ATPase catalytic activity of BRM, ADP-Glo in vitro biochemical assay; conditions: 30 nM BRM, 400 μM ATP
T1 construct: made in house; host or cells: High Five insect cells

BRG-1 = target: T2, BRG-1 (Homo sapiens, UniProt P51532); assay: ATPase catalytic activity of BRG-1, ADP-Glo in vitro biochemical assay; conditions: 30 nM BRG-1, 400 μM ATP
T2 construct: made in house; host or cells: High Five insect cells
T2 sequence (P51532 whole entry): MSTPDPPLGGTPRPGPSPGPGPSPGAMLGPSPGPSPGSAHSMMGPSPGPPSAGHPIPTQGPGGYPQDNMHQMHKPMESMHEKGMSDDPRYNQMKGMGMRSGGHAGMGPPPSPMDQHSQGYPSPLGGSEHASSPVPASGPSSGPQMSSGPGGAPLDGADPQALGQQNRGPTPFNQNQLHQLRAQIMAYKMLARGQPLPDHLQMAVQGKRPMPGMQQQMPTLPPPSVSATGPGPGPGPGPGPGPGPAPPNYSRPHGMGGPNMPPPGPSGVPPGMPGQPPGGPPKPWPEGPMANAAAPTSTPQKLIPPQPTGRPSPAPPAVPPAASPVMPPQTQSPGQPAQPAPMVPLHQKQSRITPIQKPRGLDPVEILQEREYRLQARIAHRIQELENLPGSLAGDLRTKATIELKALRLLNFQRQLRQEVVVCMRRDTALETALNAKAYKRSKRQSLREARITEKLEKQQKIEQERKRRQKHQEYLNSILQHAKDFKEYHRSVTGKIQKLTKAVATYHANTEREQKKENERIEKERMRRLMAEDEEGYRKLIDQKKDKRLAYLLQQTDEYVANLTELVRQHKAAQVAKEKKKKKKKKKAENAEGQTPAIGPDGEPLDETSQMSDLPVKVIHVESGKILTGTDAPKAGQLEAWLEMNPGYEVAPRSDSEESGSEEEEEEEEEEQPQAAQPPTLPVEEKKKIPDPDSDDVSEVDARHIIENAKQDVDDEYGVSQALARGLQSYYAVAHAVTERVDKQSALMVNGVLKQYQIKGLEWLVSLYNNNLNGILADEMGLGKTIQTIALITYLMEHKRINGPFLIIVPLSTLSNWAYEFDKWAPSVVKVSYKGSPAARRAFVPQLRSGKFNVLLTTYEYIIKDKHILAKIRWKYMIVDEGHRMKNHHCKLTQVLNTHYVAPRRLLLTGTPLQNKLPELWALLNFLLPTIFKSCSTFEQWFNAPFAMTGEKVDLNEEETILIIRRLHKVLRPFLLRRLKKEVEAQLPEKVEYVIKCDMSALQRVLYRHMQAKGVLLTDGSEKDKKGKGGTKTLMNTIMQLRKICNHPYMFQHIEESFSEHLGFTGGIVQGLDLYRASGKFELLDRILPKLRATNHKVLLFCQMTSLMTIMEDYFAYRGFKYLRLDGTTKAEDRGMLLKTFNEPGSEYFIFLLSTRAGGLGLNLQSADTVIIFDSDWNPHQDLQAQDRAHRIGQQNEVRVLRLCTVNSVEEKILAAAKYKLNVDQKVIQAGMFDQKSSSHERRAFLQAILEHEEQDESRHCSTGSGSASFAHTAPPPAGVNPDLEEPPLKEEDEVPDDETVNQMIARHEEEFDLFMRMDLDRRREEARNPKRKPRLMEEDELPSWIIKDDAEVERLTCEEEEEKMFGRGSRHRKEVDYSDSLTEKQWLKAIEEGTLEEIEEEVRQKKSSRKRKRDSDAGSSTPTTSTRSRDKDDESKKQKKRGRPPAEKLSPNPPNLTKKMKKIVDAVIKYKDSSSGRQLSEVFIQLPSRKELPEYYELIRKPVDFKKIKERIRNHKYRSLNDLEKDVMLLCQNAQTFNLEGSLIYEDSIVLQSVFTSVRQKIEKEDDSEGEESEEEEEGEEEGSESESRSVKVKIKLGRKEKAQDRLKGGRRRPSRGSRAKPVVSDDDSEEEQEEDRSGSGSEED

[1] = ATPase catalytic activity, read-out: BRM IP50 (μM)*
[2] = ATPase catalytic activity, read-out: BRG1 IP50 (μM)*
[3] = ATPase catalytic activity, read-out: BRM IP50
[4] = ATPase catalytic activity, read-out: BRG1 IP50

T1 sequence (P51531 whole entry): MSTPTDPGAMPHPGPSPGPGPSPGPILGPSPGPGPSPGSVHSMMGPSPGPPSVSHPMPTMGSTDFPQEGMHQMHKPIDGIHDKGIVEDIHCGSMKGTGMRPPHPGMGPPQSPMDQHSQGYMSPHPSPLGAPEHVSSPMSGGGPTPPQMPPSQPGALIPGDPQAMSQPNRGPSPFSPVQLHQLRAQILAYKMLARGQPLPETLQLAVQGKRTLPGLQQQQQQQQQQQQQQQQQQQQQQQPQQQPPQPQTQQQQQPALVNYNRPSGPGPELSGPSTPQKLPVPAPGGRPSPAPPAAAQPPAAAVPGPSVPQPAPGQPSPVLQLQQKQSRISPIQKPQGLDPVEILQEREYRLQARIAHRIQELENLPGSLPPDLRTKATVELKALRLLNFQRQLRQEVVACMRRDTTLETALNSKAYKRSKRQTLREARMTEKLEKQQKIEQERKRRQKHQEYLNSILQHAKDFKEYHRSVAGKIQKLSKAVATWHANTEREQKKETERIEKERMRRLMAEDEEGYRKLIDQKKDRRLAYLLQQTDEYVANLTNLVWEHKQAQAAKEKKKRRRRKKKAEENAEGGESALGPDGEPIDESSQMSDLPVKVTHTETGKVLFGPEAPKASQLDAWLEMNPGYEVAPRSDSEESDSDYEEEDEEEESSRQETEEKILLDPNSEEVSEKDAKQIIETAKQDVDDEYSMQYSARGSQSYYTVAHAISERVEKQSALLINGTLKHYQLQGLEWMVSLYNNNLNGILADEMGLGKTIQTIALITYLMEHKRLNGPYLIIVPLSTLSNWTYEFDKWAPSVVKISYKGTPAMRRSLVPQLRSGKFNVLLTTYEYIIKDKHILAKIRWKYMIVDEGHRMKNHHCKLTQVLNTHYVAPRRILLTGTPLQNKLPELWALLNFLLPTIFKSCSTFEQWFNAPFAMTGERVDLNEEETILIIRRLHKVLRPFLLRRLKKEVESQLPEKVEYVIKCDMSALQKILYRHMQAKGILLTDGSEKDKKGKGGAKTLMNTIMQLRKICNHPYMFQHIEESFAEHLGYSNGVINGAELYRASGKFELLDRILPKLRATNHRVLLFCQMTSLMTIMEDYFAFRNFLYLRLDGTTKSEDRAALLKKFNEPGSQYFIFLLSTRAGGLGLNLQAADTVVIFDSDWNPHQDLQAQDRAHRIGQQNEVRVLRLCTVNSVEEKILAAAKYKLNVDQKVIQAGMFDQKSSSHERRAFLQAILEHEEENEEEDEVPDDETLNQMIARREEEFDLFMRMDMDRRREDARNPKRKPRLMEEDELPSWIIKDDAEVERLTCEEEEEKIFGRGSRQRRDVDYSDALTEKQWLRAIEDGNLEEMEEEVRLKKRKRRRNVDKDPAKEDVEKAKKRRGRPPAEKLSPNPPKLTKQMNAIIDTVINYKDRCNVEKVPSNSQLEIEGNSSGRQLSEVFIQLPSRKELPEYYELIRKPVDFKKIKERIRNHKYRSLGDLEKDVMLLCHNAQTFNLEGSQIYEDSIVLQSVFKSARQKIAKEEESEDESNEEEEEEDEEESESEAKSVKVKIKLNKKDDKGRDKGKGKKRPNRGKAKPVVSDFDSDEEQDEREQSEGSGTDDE

Compound | IC50 (BRM; [1]) [µM] | IC50 (BRG-1; [2]) [µM] | IC50 (BRM; [3]) [µM] | IC50 (BRG-1; [4]) [µM] | also measured
CN1CCc2ccc(-c3csc(NC(=O)CNC(=O)c4ccn(C(C)(C)C)c4)n3)cc2C1=O [Compound 7, 1-(tert-butyl)-N-(2-((4-(2-methyl-1-oxo-1,2,3,4-tetrahydroisoquinolin-7-yl)thiazol-2-yl)amino)-2-oxoethyl)-1H-pyrrole-3-carboxamide] | > 0.01 | > 0.01 |  |  | 
COC[C@H](NC(=O)c1ccn(S(C)(=O)=O)c1)C(=O)Nc1nc(-c2cccc(C3CC(C)(C)OC(C)(C)C3)c2)cs1 [Compound 353] | > 0.01 | > 0.1 |  |  | 
COC[C@H](NC(=O)c1ccn(S(C)(=O)=O)c1)C(=O)Nc1nc(-c2cccc(N3CC[C@H]4COC[C@@H]4C3)n2)cs1 [Compound 772] |  |  | < 0.01 | < 0.01 | 
CC(C)(C#N)n1ccc(C(=O)NCC(=O)Nc2nc(-c3cc(F)c4c(c3)OCC4)cs2)c1 [Compound 571] |  |  | < 0.01 | > 0.01 | 
COC[C@H](NC(=O)c1ccn(S(C)(=O)=O)c1)C(=O)Nc1nc(-c2cccc(-c3cc(C)no3)c2)cs1 [Compound 436] |  |  | > 0.01 | > 0.01 | 
CC(C)(C)n1ccc(C(=O)NCC(=O)Nc2nc(-c3cccc(N4CCC5(CC4)CC(F)C5)n3)cs2)c1 [Compound 628] |  |  | > 0.1 | > 0.1 | 
C[C@@H]1CN(c2cccc(-c3csc(NC(=O)CNC(=O)c4ccn(C(C)(C)C)c4)n3)c2)C[C@H](C)O1 [Compound 90, 1-(tert-butyl)-N-(2-((4-(3-(cis-2,6-dimethylmorpholino)phenyl)thiazol-2-yl)amino)-2-oxoethyl)-1H-pyrrole-3-carboxamide] | < 0.01 | < 0.01 |  |  | 
Cn1ccc(-c2cccc(-c3csc(NC(=O)CNC(=O)c4ccn(C(C)(C)C#N)c4)n3)c2)n1 [Compound 562] |  |  | < 0.01 | > 0.01 | 
CN1CCOc2c(F)cc(-c3csc(NC(=O)CNC(=O)c4ccn(S(C)(=O)=O)c4)n3)cc21 [Compound 546] |  |  | < 0.01 | < 0.01 | 
Cn1ccc(-c2cccc(-c3csc(NC(=O)CNC(=O)c4ccn(C5(C#N)CC5)n4)n3)c2)n1 [Compound 813] |  |  |  |  | IC50 (BRM; read-out: BRM IP50): > 0.01 µM; IC50 (BRG-1; read-out: BRG1 IP50): > 0.1 µM
COC[C@H](NC(=O)c1ccn(S(C)(=O)=O)c1)C(=O)Nc1nc(-c2cccc(-c3ccncn3)c2)cs1 [Compound 65, (S)—N-(3-methoxy-1-oxo-1-((4-(3-(pyrimidin-4-yl)phenyl)thiazol-2-yl)amino)propan-2-yl)-1-(methylsulfonyl)-1H-pyrrole-3-carboxamide] | < 0.01 | < 0.01 |  |  | 
N#CC1(n2ccc(C(=O)NCC(=O)Nc3nc(-c4ccc(F)c(N5CCC5)c4)cs3)c2)CC1 [Compound 516] |  |  | > 0.01 | > 0.01 | 
C[C@@H]1CN(c2cccc(-c3csc(NC(=O)CNC(=O)c4ccn(S(C)(=O)=O)c4)n3)c2F)C[C@H](C)O1 [Compound 294] | > 0.01 | > 0.01 |  |  | 
CN1Cc2ccc(-c3csc(NC(=O)CNC(=O)c4ccn(C(C)(C)C)c4)n3)cc2N(C)C1=O [Compound 134, 1-(tert-butyl)-N-(2-((4-(1,3-dimethyl-2-oxo-1,2,3,4-tetrahydroquinazolin-7-yl)thiazol-2-yl)amino)-2-oxoethyl)-1H-pyrrole-3-carboxamide] | > 0.01 | > 0.1 |  |  | 
COc1cc(F)cc(-c2csc(NC(=O)CNC(=O)c3ccn(S(C)(=O)=O)c3)n2)c1 [Compound 701] |  |  | < 0.01 | > 0.01 | 
C[C@@H]1CN(c2cccc(-c3csc(NC(=O)[C@H](C)NC(=O)c4ccn(S(C)(=O)=O)c4)n3)n2)C[C@H](C)O1 [Compound 767] |  |  | < 0.01 | > 0.01 | 
CS(=O)(=O)n1ccc(C(=O)NCC(=O)Nc2nc(-c3cccc(OCc4ccncc4)c3)cs2)c1 [Compound 106, 1-(methylsulfonyl)-N-(2-oxo-2-((4-(3-(pyridin-4-ylmethoxy)phenyl)thiazol-2-yl)amino)ethyl)-1H-pyrrole-3-carboxamide] | < 0.01 | < 0.01 |  |  | 
COC[C@H](NC(=O)c1ccn(S(C)(=O)=O)c1)C(=O)Nc1nc(-c2cccc(-c3cc(C)nc(C)c3)c2)cs1 [Compound 61, (S)—N-(1-((4-(3-(2,6-dimethylpyridin-4-yl)phenyl)thiazol-2-yl)amino)-3-methoxy-1-oxopropan-2-yl)-1-(methylsulfonyl)-1H-pyrrole-3-carboxamide] | < 0.01 | < 0.01 |  |  | 
CC(C)(C)n1ccc(C(=O)NCC(=O)Nc2nc(-c3cccc(N4CCC5OCCC5C4)n3)cs2)c1 (stereo not shown) [Compound 676] |  |  | > 0.01 | > 0.01 | 
Cn1ccc2ccc(-c3csc(NC(=O)CNC(=O)c4ccn(C5(C#N)CC5)n4)n3)cc2c1=O [Compound 793] |  |  |  |  | IC50 (BRM; read-out: BRM IP50): > 0.01 µM; IC50 (BRG-1; read-out: BRG1 IP50): > 0.01 µM
CO[C@H]1CCCN(c2cccc(-c3csc(NC(=O)CNC(=O)c4ccn(C(C)(C)C)c4)n3)n2)C1 [Compound 311] | > 0.01 | > 0.01 |  |  | 
CS(=O)(=O)n1ccc(C(=O)NCC(=O)Nc2nc(-c3cccc(-c4ccnc(N5CCNCC5)c4)c3)cs2)c1 [Compound 54, 1-(methylsulfonyl)-N-(2-oxo-2-((4-(3-(2-(piperazin-1-yl)pyridin-4-yl)phenyl)thiazol-2-yl)amino)ethyl)-1H-pyrrole-3-carboxamide] | < 0.01 | < 0.01 |  |  | 
COC[C@H](NC(=O)c1ncc(C(C)(C)C)o1)C(=O)Nc1nc(-c2cccc(-c3cnn(C)n3)c2)cs1 [Compound 821] |  |  |  |  | IC50 (BRM; read-out: BRM IP50): > 0.01 µM; IC50 (BRG-1; read-out: BRG1 IP50): > 0.01 µM
COC[C@H](NC(=O)c1ccn(C(C)(C)C)c1)C(=O)Nc1nc(-c2ccc3ccn(C)c(=O)c3c2)cs1 [Compound 63, (S)-1-(tert-butyl)-N-(3-methoxy-1-((4-(2-methyl-1-oxo-1,2-dihydroisoquinolin-7-yl)thiazol-2-yl)amino)-1-oxopropan-2-yl)-1H-pyrrole-3-carboxamide] | > 0.01 | > 0.01 |  |  | 
COC[C@H](NC(=O)c1ccn(S(C)(=O)=O)c1)C(=O)Nc1nc(-c2cc(Cl)cc(C#N)c2)cs1 [Compound 721] |  |  | > 0.01 | > 0.01 | 

Continued, in another order:

IC50 (BRM; [1]) [µM] | IC50 (BRG-1; [2]) [µM] | IC50 (BRM; [3]) [µM] | IC50 (BRG-1; [4]) [µM] | Compound | also measured
 |  | > 0.01 | > 0.01 | CC(C)(F)COc1cccc(-c2csc(NC(=O)CNC(=O)c3ccn(S(C)(=O)=O)c3)n2)c1 [Compound 483] | 
 |  | < 0.01 | < 0.01 | CS(=O)(=O)n1ccc(C(=O)NCC(=O)Nc2nc(-c3ccc(F)c(N4CCC4)c3)cs2)c1 [Compound 511] | 
> 0.01 | > 0.1 |  |  | CS(=O)(=O)n1ccc(C(=O)NCC(=O)Nc2nc(-c3cccc(N4CCC(F)(F)CC4)c3)cs2)c1 [Compound 241] | 
> 0.01 | > 0.01 |  |  | CS(=O)(=O)n1ccc(C(=O)NCC(=O)Nc2nc(-c3cccc(N4CC(N5CCOCC5)C4)c3)cs2)c1 [Compound 227] | 
> 0.01 | > 0.01 |  |  | CS(=O)(=O)n1ccc(C(=O)NCC(=O)Nc2nc(-c3cccc(N4CCC5(CC4)COC5)c3)cs2)c1 [Compound 202] | 
 |  | > 0.01 | > 0.01 | COc1cc(-c2csc(NC(=O)CNC(=O)c3ccn(S(C)(=O)=O)c3)n2)ccc1F [Compound 718] | 
 |  | < 0.01 | > 0.01 | CS(=O)(=O)n1ccc(C(=O)NCC(=O)Nc2nc(-c3cccc(N4CC[C@H](C(F)F)C4)c3)cs2)c1 [Compound 585] | 
 |  | < 0.01 | < 0.01 | Cc1cc(-c2cccc(-c3csc(NC(=O)CNC(=O)c4ccn(S(C)(=O)=O)c4)n3)c2)nc(C)n1 [Compound 412] | 
> 0.01 | > 0.1 |  |  | CS(=O)(=O)n1ccc(C(=O)NCC(=O)Nc2nc(-c3cccc(N4CC(n5ccnc5)C4)c3)cs2)c1 [Compound 172] | 
> 0.01 | > 0.01 |  |  | Cc1cn(-c2cccc(-c3csc(NC(=O)CNC(=O)c4ccn(S(C)(=O)=O)c4)n3)c2)cn1 [Compound 93, N-(2-((4-(3-(4-methyl-1H-imidazol-1-yl)phenyl)thiazol-2-yl)amino)-2-oxoethyl)-1-(methylsulfonyl)-1H-pyrrole-3-carboxamide] | 
> 0.01 | > 0.01 |  |  | CO[C@@H]1CN(c2cccc(-c3csc(NC(=O)CNC(=O)c4ccn(S(C)(=O)=O)c4)n3)c2)C[C@H]1OC (racemic) [Compound 198] | 
 |  | > 0.01 | > 0.01 | CS(=O)(=O)n1ccc(C(=O)NCC(=O)Nc2nc(-c3cccc([C@H]4CCCOC4)c3)cs2)c1 [Compound 420, 1-methylsulfonyl-N-[2-oxo-2-[[4-[3-[(3R)-tetrahydropyran-3-yl]phenyl]thiazol-2-yl]amino]ethyl]pyrrole-3-carboxamide] | 
 |  | > 0.01 | > 0.01 | CS(=O)(=O)n1ccc(C(=O)NCC(=O)Nc2nc(-c3ccc4c(c3)N(CC3COC3)CC4)cs2)c1 [Compound 486] | 
> 0.1 | > 0.1 |  |  | CS(=O)(=O)n1ccc(C(=O)NCC(=O)Nc2nc(-c3cccc(N4CC5(CCCOC5)C4)c3)cs2)c1 [Compound 171] | 
> 0.1 | > 0.1 |  |  | CS(=O)(=O)n1ccc(C(=O)NCC(=O)Nc2nc(-c3cccc(N4CC5CC4CO5)c3)cs2)c1 (stereo not shown) [Compound 214] | 
> 0.1 | > 0.1 |  |  | CS(=O)(=O)n1ccc(C(=O)NCC(=O)Nc2nc(-c3cccc(C4(O)CCOCC4)c3)cs2)c1 [Compound 141, N-(2-((4-(3-(4-hydroxytetrahydro-2H-pyran-4-yl)phenyl)thiazol-2-yl)amino)-2-oxoethyl)-1-(methylsulfonyl)-1H-pyrrole-3-carboxamide] | 
< 0.01 | > 0.01 |  |  | COC[C@H](NC(=O)c1ccn(S(C)(=O)=O)c1)C(=O)Nc1nc(-c2cccc(N3CCO[C@H](C)C3)c2)cs1 [Compound 372] | 
 |  | < 0.01 | < 0.01 | CS(=O)(=O)n1ccc(C(=O)NCC(=O)Nc2nc(-c3cccc(C4=CCOCC4)c3)cs2)c1 [Compound 400] | 
> 0.01 | > 0.01 |  |  | CN1CCc2ccc(-c3csc(NC(=O)CNC(=O)c4ccn(S(C)(=O)=O)c4)n3)cc21 [Compound 270] | 
